In patent US11266640B2, “Polycyclic compound acting as IDO inhibitor and/or IDO-HDAC dual inhibitor” (Hangzhou Innogate Pharma Co., Ltd., priority 2017, dated 2022):
pIC50: −log10 of the molar value.

How the values were obtained:
hIDO1 = target: T1, hIDO1 (Homo sapiens, UniProt P14902); assay: IDO inhibition activity based on HEK293T cells transfected with hIDO1 plasmid; assay type: cell-based; settings: HEK293T cells transfected with hIDO1, 16 hours incubation, OD 480 nm; read-out: IDO inhibitory activity of HEK293T cells (IC50)
T1 construct: expressed in transfected cells; host or cells: HEK293T (293T) cells, transient transfection with Fugene 6
Method: 1. Test Method for IDO Inhibition Activity Based on HEK293T Cells:
The first step: cell transfection and plating. 5×10^6 293T cells were separately seeded in two T75 flasks and incubated overnight at 37° C. in a 5% CO2 incubator. […] of a mixture containing 1.5 μg of hIDO1 plasmid and 300 μL of opti-MEM was made into a mixture A; 18 μL of liposome fugene 6 was mixed with 300 μL of opti-MEM to prepare a mixture B, and allowed to stand at room temperature for 5 minutes. Mixture A and Mix B were mixed, placed at room temperature for 20 minutes, added to a 293T culture flask, and the other flask was used as a control and incubated overnight at 37° C. in a 5% CO2 incubator. The medium was discarded, digested with trypsin, and after digestion, the cells were neutralized with serum-containing medium, and the cells were blown to cause the cells to fall off. Pipette the cell suspension into a centrifuge tube and centrifuge at a speed of 800-1000 for 1-3 minutes. Aspirate the cell supernatant from the centrifuge tube. Add an appropriate volume of medium to the tube and gently blister to resuspend the cells. Count using a Vi-Cell XR cytometer. Adjust the cell suspension to the appropriate concentration. The cell suspension was added to a white-well 96-well plate at 80 μL/well. The second step: preparation and addition of the compound. Compounds were formulated in DMSO at 600 μM and the compounds were diluted in DMSO according to a multiple of the following table to give 6 concentration gradients of the compound. The 200× compound prepared in DMSO was formulated into a 10× dilution solution in proportion to the corresponding cell culture medium. Add 10 μL of 10× corresponding compound dilution and 10 μL of 10×TRP to each well, except for Min. Incubate for 16 hours in a 37° C. incubator. The third step: detection and analysis. Cell morphology was observed under an inverted microscope. 80 μL of the supernatant was added to a 3894 plate, and 10 μL of 6.1 N trichloroacetic acid was added to each well, shaken for 2 minutes, and placed in a 50-degree incubator for 30 minutes. Centrifuged at 2500 rpm for 10 minutes. Take 70 μL of the supernatant and transfer to a 3635 UV plate, add 70 μL of the reaction solution, and shake for 2 minutes to make the reaction uniform. Use EnSpire (PE) to detect data with an OD of 480 nm. The cell culture plate 3903 was allowed to stand at room temperature for 30 minutes. 100 μL/well of the cell activity detecting reagent was added to the culture plate. Mix on a shaker for 2 minutes to induce cell lysis. The 96-well plate was allowed to stand at room temperature for 10 minutes to stabilize the luminescence signal. Paste the white base film on the bottom of the plate and the plate was tested in Flexstation 3 (the relevant setting is: Illumination, integration time 500 ms). Record the experimental results obtained from the analysis.
The IC50 value is expressed by: A: IC50 value≤10 nM; B: 10 nM<IC50 value≤50 nM; C: 50 nM<IC50 value≤100 nM; D: IC50 value>100 nM.

IDO = target: T2, IDO (Homo sapiens, UniProt P14902); assay: Hela cell-based IDO inhibitory activity test (IFNγ added); settings: Hela cells with IFNγ, 48 hours incubation, OD 480 nm
T2 construct: endogenous in cells; host or cells: HeLa cells treated with IFNγ
Method: 2. Hela Cell-Based IDO Inhibitory Activity Test Method
The first step: cell plating. Prepare complete medium and mix well. Cell lines that are in good growth state are selected. Remove the cell culture flask from the incubator and check the cell name, media type and cell generation number on the bottle. The medium was discarded, digested with trypsin, and after digestion, the cells were neutralized with serum-containing medium, and the cells were blown to cause the cells to fall off. Pipette the cell suspension into a centrifuge tube and centrifuge at a speed of 800-1000 for 3-5 minutes. Aspirate the cell supernatant from the centrifuge tube. Add an appropriate volume of medium to the tube and gently blister to resuspend the cells. Count using a Vi-Cell XR cytometer. Adjust the cell suspension to the appropriate concentration. The cell suspension was added to a white-well 96-well plate at 80 μl/well according to the schematic below. The second step: preparation and addition of the compound. Compounds were formulated in DMSO at 600 μM and the compounds were diluted in DMSO according to a multiple of the following table to give 6 concentration gradients of the compound. The 200× compound prepared in DMSO was formulated into a 10× dilution solution in proportion to the corresponding cell culture medium. After 24 hours of cell seeding, 10 μL of 10× corresponding compound dilution and 10 μL of 10×IFNγ were added to each well. Incubate for 48 hours in a 37° C. incubator. The third step: detection and analysis. Cell morphology was observed under an inverted microscope. 80 μL of the supernatant was added to a 3894 plate, 10 μL of 6.1 N trichloroacetic acid was added to each well, shaken for 2 minutes, and placed in a 50-degree incubator for 30 minutes. Centrifuge, 2500 rpm for 10 minutes.
Take 70 μL of the supernatant and transfer to a 3635 UV plate, add 70 μL of the reaction solution, and shake for 2 minutes to make the reaction uniform. Use EnSpire (PE) to detect data with an OD of 480 nm. The cell culture plate 3903 was allowed to stand at room temperature for 30 minutes. 100 μL/well of the cell activity detecting reagent was added to the culture plate. Mix on a shaker for 2 minutes to induce cell lysis. The 96-well plate was allowed to stand at room temperature for 10 minutes to stabilize the luminescence signal. Paste the white base film on the bottom of the plate and tested with Flexstation3 plate (the relevant setting is: Illumination, integration time 500 ms). Record the experimental results obtained from the analysis.
The IC50 value is expressed in the following manner: […]

T1 sequence (P14902 whole entry): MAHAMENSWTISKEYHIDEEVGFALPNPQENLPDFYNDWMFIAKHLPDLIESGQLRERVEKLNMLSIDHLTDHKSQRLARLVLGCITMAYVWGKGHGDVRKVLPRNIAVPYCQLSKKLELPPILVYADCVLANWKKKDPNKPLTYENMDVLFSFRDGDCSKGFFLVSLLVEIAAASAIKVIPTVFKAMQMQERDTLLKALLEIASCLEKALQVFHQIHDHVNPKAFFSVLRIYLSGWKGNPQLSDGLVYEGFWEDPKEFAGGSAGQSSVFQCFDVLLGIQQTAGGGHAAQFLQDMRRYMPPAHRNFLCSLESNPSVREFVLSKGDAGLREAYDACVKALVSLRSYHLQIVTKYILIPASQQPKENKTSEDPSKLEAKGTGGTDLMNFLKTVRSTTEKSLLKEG
T2 sequence (P14902 whole entry): as above

Structure (SMILES)	pIC50 (hIDO1)	pIC50 (IDO)
CC(C(=O)Nc1ccc(Cl)cn1)[C@H]1C[C@H]2CC(c3ccnc4ccc(F)cc34)C[C@H]2C1 (mixture of isomers) [Compound 26]	7.30 to 8.00	≥ 8.30
CC(C(=O)Nc1ccc(Cl)cc1)[C@@H]1C[C@@H]2CN(c3ccnc4ccc(F)cc34)C[C@@H]2C1 (stereo partly drawn) [Compound 9]	< 7.00	< 7.00
C#Cc1ccc(NC(=O)C[C@@H]2C[C@@H]3C[C@H](c4ccnc5ccc(F)cc45)C[C@@H]3C2)nc1 [Compound 67]	≥ 8.00	≥ 8.30
O=C(Cc1ccc(CC(C(=O)Nc2ccc(Cl)cc2)[C@H]2CC[C@@H](c3ccnc4ccc(F)cc43)CC2)cc1)NO (stereo partly drawn) [Compound 10]	< 7.00	< 7.00
C#Cc1ccc(NC(=O)C2([C@@H]3C[C@H]4C[C@@H](c5ccnc6ccc(F)cc56)C[C@H]4C3)CC2)cn1 [Compound 93]	≥ 8.00	≥ 8.30
CC(C(=O)Nc1cccc(Cl)c1)[C@H]1C[C@H]2C[C@@H](c3ccnc4ccc(F)cc34)C[C@H]2C1 (stereo partly drawn) [Compound 7]	7.30 to 8.00	7.60 to 8.30
O=C(CC1=C[C@H]2C[C@@H](c3ccnc4ccc(F)cc34)C[C@H]2C1)Nc1ccc(Cl)cc1 (racemic) [Compound 57]	7.30 to 8.00	≥ 8.30
CC(C(=O)Nc1ccc(Cl)nc1)N1C[C@H]2C[C@@H](c3ccnc4ccc(F)cc34)C[C@H]2C1 (stereo partly drawn) [Compound 45]	7.30 to 8.00	7.60 to 8.30
C/C(C(=O)Nc1ccc(Cl)cc1)=C1\C[C@@H]2C[C@H](c3ccnc4ccc(F)cc34)C[C@@H]2C1 [Compound 68]	≥ 8.00	≥ 8.30
CC(C)(C(=O)Nc1ccc(Cl)nc1)[C@H]1C[C@H]2C[C@@H](c3ccnc4ccc(F)cc34)C[C@H]2C1 [Compound 85]	≥ 8.00	7.60 to 8.30
C#Cc1ccc(NC(=O)C2([C@H]3C[C@H]4C[C@@H](c5ccnc6ccc(F)cc56)C[C@H]4C3)CC2)nc1 [Compound 96]	≥ 8.00	≥ 8.30
O=C(C[C@@H]1C[C@@H]2CC(c3ccnc4ccc(F)cc34)=C[C@@H]2C1)Nc1ccc(Cl)cc1 [Compound 11]	7.30 to 8.00	≥ 8.30
C[C@H](C(=O)Nc1ccc(Cl)cc1)[C@H]1C[C@H]2C[C@@H](c3ccnc4ccc(F)cc34)C[C@H]2C1 (single isomer, unassigned) [Compound 1B]	≥ 8.00	≥ 8.30
CC(C(=O)Nc1ccc(C#N)cn1)[C@H]1C[C@H]2C[C@@H](c3ccnc4ccc(F)cc34)C[C@H]2C1 (stereo partly drawn) [Compound 73]	≥ 8.00	≥ 8.30
C#Cc1ccc(NC(=O)C(C)(C)[C@H]2C[C@H]3C[C@@H](c4ccnc5ccc(F)cc45)C[C@H]3C2)cn1 [Compound 87]	≥ 8.00	≥ 8.30
O=C(Nc1ccc(Cl)cn1)C1([C@@H]2C[C@H]3C[C@@H](c4ccnc5ccc(F)cc45)C[C@H]3C2)CC1 [Compound 92]	≥ 8.00	≥ 8.30
C#Cc1ccc(NC(=O)C(C)[C@H]2C[C@H]3C[C@@H](c4ccnc5ccc(F)cc45)C[C@H]3C2)nc1 (stereo partly drawn) [Compound 74]	7.30 to 8.00	≥ 8.30
O=C(C[C@H]1C[C@@H]2C[C@H](c3ccnc4ccc(F)cc34)C[C@@H]2C1)Nc1ccc(Cl)cc1 [Compound 5]	≥ 8.00	≥ 8.30
CC(C(=O)Nc1ccc(C#CC2CC2)cn1)[C@H]1C[C@H]2CC(c3ccnc4ccc(F)cc34)C[C@H]2C1 (stereo partly drawn) [Compound 79]	7.30 to 8.00	< 7.00

Structure (SMILES)	pIC50 (hIDO1)	pIC50 (IDO)
CC(C)(C(=O)Nc1ccc(C#N)cn1)[C@H]1C[C@H]2C[C@@H](c3ccnc4ccc(F)cc34)C[C@H]2C1 [Compound 88]	≥ 8.00	≥ 8.30
CC(C(=O)Nc1ccc(C#CC(C)(C)O)cn1)[C@H]1C[C@H]2C[C@@H](c3ccnc4ccc(F)cc34)C[C@H]2C1 (stereo partly drawn) [Compound 77]		≥ 8.30
O=C(Nc1ccc(Cl)cc1)N1C[C@H]2C[C@@H](c3ccnc4ccc(F)cc34)C[C@H]2C1 [Compound 48]		< 7.00
C#Cc1ccc(NC(=O)C[C@@H]2C[C@@H]3CC(c4ccnc5ccc(F)cc45)=C[C@@H]3C2)cn1 [Compound 64]		≥ 8.30
CC(C(=O)Nc1ccc(I)cn1)C1C[C@H]2CC(c3ccnc4ccc(F)cc34)C[C@H]2C1 (stereo partly drawn) [Compound 76]		≥ 8.30
CC(C(=O)NC1CCOCC1)[C@H]1C[C@H]2C[C@@H](c3ccnc4ccc(F)cc34)C[C@H]2C1 (stereo partly drawn) [Compound 3]		< 7.00
O=C(Nc1ccc(Cl)cn1)C(F)(F)[C@H]1C[C@H]2C[C@@H](c3ccnc4ccc(F)cc34)C[C@H]2C1 [Compound 104]		7.00 to 7.60
CC(C(=O)Nc1ccc(Cl)nc1)C1=C[C@H]2C[C@@H](c3ccnc4ccc(F)cc34)C[C@H]2C1 (stereo partly drawn) [Compound 39]		≥ 8.30
O=C(C[C@@H]1C[C@@H]2CC(c3ccnc4ccc(F)cc34)=C[C@@H]2C1)Nc1ccc(Cl)nc1 (racemic) [Compound 62]		≥ 8.30
C[C@H](C(=O)Nc1ccc(Cl)cn1)[C@H]1C[C@H]2CC(c3ccnc4ccc(F)cc34)C[C@H]2C1 (single isomer, unassigned) [Compound 26B]		≥ 8.30
CC(C(=O)Nc1ccc(Cl)nn1)[C@H]1C[C@H]2C[C@@H](c3ccnc4ccc(F)cc34)C[C@H]2C1 (stereo partly drawn) [Compound 29]		7.00 to 7.60
O=C(C[C@H]1C[C@H]2CC(c3ccnc4ccc(F)cc34)C[C@H]2C1)Nc1ccc2c(c1)OC(F)(F)O2 (stereo partly drawn) [Compound 16]		< 7.00
O=C(C[C@H]1C[C@H]2CC(c3ccnc4ccc(F)cc34)C[C@H]2C1)Nc1ccc(Cl)nc1 (stereo partly drawn) [Compound 18]		≥ 8.30
CC(C(=O)Nc1ccc(Cl)cn1)N1C[C@H]2C[C@@H](c3ccnc4ccc(F)cc34)C[C@H]2C1 (stereo partly drawn) [Compound 99]		7.60 to 8.30
CC(C)(O)C#Cc1ccc(NC(=O)C[C@@H]2C[C@H]3CC(c4ccnc5ccc(F)cc45)C[C@H]3C2)nc1 (stereo partly drawn) [Compound 103]		< 7.00
O=C(C[C@@H]1C[C@H]2CC(c3ccnc4ccc(F)cc34)C[C@H]2C1)Nc1ccc(Cl)cn1 (stereo partly drawn) [Compound 21]		7.60 to 8.30
CC(C(=O)Nc1ccc(C(F)(F)F)nc1)[C@H]1C[C@H]2C[C@@H](c3ccnc4ccc(F)cc34)C[C@H]2C1 (stereo partly drawn) [Compound 80]		≥ 8.30
N#Cc1ccc(NC(=O)C[C@@H]2C[C@H]3CC(c4ccnc5ccc(F)cc45)C[C@H]3C2)cc1 (stereo partly drawn) [Compound 23]		≥ 8.30
